Experimental data published in patent US20030054047A1 (priority 2001, published 2003).
Values after ≈ are worked out from the molar mass of the structure shown.

Assays:
[1] = test system: Influenza virus A/90-15; assay: microbe, parasite or virus in culture; type: cell-based, Influenza virus type A (H3N2) strain Jifeng A/90-15
[2] = test system: Influenza virus B/97-13; assay: microbe, parasite or virus in culture; type: cell-based, Influenza virus type B strain Jifeng B/97-13
[3] = test system: Influenza virus A/90-15; assay: Preventive assay: MDCK cells pre-treated 24 hours, then infected, influenza A; type: cell-based, Influenza virus type A (H3N2) strain Jifeng A/90-15; details: drug added 24 hours before infection
Procedure: (§1) Preventive assay: Cell culture plate pre-treated with different concentrations of sample solutions for 24 hours, washed out the drugs, then infected with viruses, incubated, washed, observed and calculated the inhibition % as above.

[4] = test system: Influenza virus B/97-13; assay: Preventive assay: MDCK cells pre-treated 24 hours, then infected, influenza B; type: cell-based, Influenza virus type B strain Jifeng B/97-13; details: drug added 24 hours before infection
Procedure: as §1

**Q.** For `NC(=O)c1ncn([C@@H]2O[C@H](CO)[C@@H](O)[C@H]2O)n1` [Ribavirin, 1-β-D-ribafuranosyl-1,2,4-triazole-3-carboxamide], which “Inhibition of virus CPE (in words)” value [1] is on record?
**A.** Its value is “effective”.

**Q.** And the IC50 ([1]; unidentified influenza virus, MDCK, read-out: Influenza virus A/90-15 IC50)?
**A.** Its IC50 is 70 ± 40 µg/mL (≈ 287 µM).

**Q.** And the “Inhibition of virus CPE (in words)” value [2]?
**A.** The value was “effective”.

**Q.** And the IC50 ([2]; unidentified influenza virus, MDCK, read-out: Influenza virus B/97-13 IC50)?
**A.** The IC50 was 60 ± 30 µg/mL (≈ 246 µM).

**Q.** And the “Activity on pretreatment for 24 hours (in words)” value [3]?
**A.** Its value is “effective”.

**Q.** And the “Activity on pretreatment for 24 hours (in words)” value [4]?
**A.** Its value is “effective”.
